PubChem BioAssay (NCI)
“And” between values parts separate entries of the source, which are not always exact repeats. Equal entries are not always repeated.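 Method: 48-hour compound exposure of cells in 96-well plates, five concentrations, linear interpolation of endpoints. GI50 = concentration required for 50% inhibition of growth. TGI marks complete inhibition of growth.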

Key:
Experiment in all cases: NCI tumour cell line growth inhibition, 48 h
[1] = test system: CAKI-1 renal
[2] = test system: LOX IMVI melanoma
[3] = test system: TK-10 renal
[4] = test system: U251 CNS
[5] = test system: T-47D breast
[6] = test system: 786-0 renal
[7] = test system: COLO 205 colon
[8] = test system: UACC-62 melanoma
[9] = test system: SN12C renal
[10] = test system: OVCAR-5 ovarian

Row | Compound | GI50 [1] [µM] | TGI [1] [µM] | GI50 [2] | TGI [2] | GI50 [3] [µM] | TGI [3] | GI50 [4] | TGI [4] | GI50 [5] [µM] | TGI [5] [µM] | GI50 [6] [µM] | TGI [6] [µM] | GI50 [7] | TGI [7] | GI50 [8] [µM] | TGI [8] | GI50 [9] | TGI [9] | GI50 [10] | TGI [10]
1 | Cc1sc2nc(-c3ccccn3)c(/C=N/N=C(N)N)n2c1C | 9.11 | 18.3 | 4.01 µM | 8.26 µM | 5.89 | 11.2 µM | 9.3 µM | 21 µM | 3.93 | 10.2 | 4.84 | 12.6 | 4.97 µM | 11.4 µM | 4.19 | 10.4 µM | 14.4 µM | 28.9 µM | 7.67 µM | 16.2 µM
2 | CN(C)CCCNC(=O)c1cc2c3ccccc3[nH]c2c2ncccc12 | 7.83 | 56.5 | 8.34 µM | 23.8 µM | 15.5 | > 100 µM | 16.7 µM | 70 µM | 19.4 | 61.2 | 11.7 | 42.4 | 4.43 µM | 16.6 µM | 16 | 30.1 µM | 15.6 µM | > 100 µM | 20.3 µM | > 100 µM
3 | NC1=CC(=O)C(=O)c2cccnc21 | 8.45 | 31.2 | 1.7 µM | 4.38 µM | 29.3 | 68.2 µM | 3.92 µM | 15.4 µM | 3.68 | 9.73 | 14.8 | 28 | 16.6 µM | 30.1 µM | 1.83 | 3.79 µM | 3.11 µM | 13.4 µM | 17.8 µM | 34.3 µM
4 | COc1ccc(-c2nnc3n(C)c(=O)c4ccccc4n23)cc1O | 1.06 | > 100 | 1.25 µM | > 100 µM | 6.8 | > 100 µM | 0.263 µM | 20.8 µM | 2.41 | > 100 | 2.57 | 28 | 3.36 µM | 21.1 µM | 0.441 | 27.1 µM | 1.47 µM | > 100 µM | 15.8 µM | > 100 µM
5 | CC[C@](O)(C(=O)O)c1cc2n(c(=O)c1CO)Cc1cc3ccccc3nc1-2 | < 0.0025 |  | 0.00507 µM and 0.0264 µM | 0.307 µM and 0.686 µM and 0.652 µM | 1.1 | 4.38 µM and > 24.8 µM | < 0.0025 µM and 0.0107 µM | 0.0386 µM and 0.164 µM and 0.0615 µM | < 0.0025 | 0.0755 |  | 0.0525 | 0.0556 µM and 0.296 µM | 0.779 µM and 2.21 µM and 3.85 µM | 0.00348 | 0.121 µM and 0.0422 µM and 0.0555 µM | 0.00365 µM and < 0.0193 µM | 0.822 µM and 0.121 µM | 0.0691 µM and 0.104 µM | 0.784 µM and 0.501 µM
6 | O=C1C[C@@H](c2ccccc2)NCCCCN(O)CCCN1 |  | > 100 |  | > 100 µM |  | > 100 µM |  | > 100 µM |  | > 100 |  | > 100 |  | > 100 µM |  | > 100 µM |  | > 100 µM |  | > 100 µM
7 | C[C@@H]1CN(Cc2ccc(/C=C/c3n[nH]c4ccc5nc(-c6cn[nH]c6C(F)(F)F)c6c(c5c34)CCCC6)cc2)C[C@H](C)O1 | 2.29 | 11.5 | 2.33 µM | 10.8 µM | 4.92 | 17.7 µM | 5.45 µM | 19.5 µM | 6.66 | 26.4 | 4.09 | 17.5 | 3.21 µM | 12 µM | 5.73 | 19.3 µM | 2.46 µM | 14.9 µM | 4.06 µM | 16.2 µM
8 | CCOC(=O)Nc1nc2c(F)c(F)c(F)cc2s1 | > 100 | > 100 | > 100 µM | > 100 µM | > 100 | > 100 µM | 36.7 µM | > 100 µM | 61.8 | > 100 | 84.3 | > 100 | > 100 µM | > 100 µM | 19.7 | > 100 µM | > 100 µM | > 100 µM | > 100 µM | > 100 µM
9 | Nc1c(C(=O)Nc2cccc3ccccc23)sc2nc3c(cc12)CCCC3 | 5.9 | > 100 | 1.75 µM | > 100 µM | 14.6 | > 100 µM | 0.781 µM | > 100 µM | 0.44 | 90.5 | 1.11 | > 100 | 2.45 µM | 9.53 µM | 0.716 | > 100 µM | 6 µM | > 100 µM | > 100 µM | > 100 µM
10 | CC(C)(C)c1ccc(C(=O)N/N=C/c2ccc(O)cc2O)cc1 | 0.342 | 1.99 | 0.224 µM | 0.975 µM | 0.73 | > 53.5 µM | 0.483 µM | 14.9 µM | 0.786 | 32.6 | 0.53 | 3.3 | 0.377 µM | 6.76 µM | 0.363 | 3.2 µM | 0.801 µM | 13 µM | 0.661 µM | 14.7 µM
11 | Cc1ccc(C(=O)Nc2ccc(CN3CCN(C)CC3)c(C(F)(F)F)c2)cc1C#Cc1cncc2ncccc12 | 0.222 | 2.52 | 0.0978 µM | 0.554 µM | 0.253 | 1.41 µM | 0.52 µM | 1.84 µM | 1.58 | 21.1 | 0.48 | 1.94 | 0.221 µM | 5.56 µM | 0.102 | 1.26 µM | 0.24 µM | 11.1 µM | 0.653 µM | 5.71 µM
12 | COC(=O)[C@]12CC[C@@H](C)[C@H](C)[C@@H]1C1=CC[C@@H]3[C@@]4(C)C(c5ncon5)=C[C@@](C)(CO)C4=CC[C@@]3(C)[C@]1(C)CC2 | 4.06 | 26 | 1.62 µM | 2.97 µM | 2.17 | 5.36 µM | 2.02 µM | 3.84 µM | 1.99 | 5.86 | 2.91 | 8.58 | 1.96 µM | 4.15 µM | 1.89 | 4.02 µM | 3.05 µM | 10.6 µM | 5.2 µM | 26.8 µM
13 | O=C(Cc1ccc(/C=C/C(=O)c2ncc[nH]2)cc1)Nc1ccc(Br)cc1 | 2.92 | 8.48 | 0.889 µM | 3.12 µM | 4.31 | 12.6 µM | 0.704 µM | 2.56 µM | 3.82 | > 16.7 | 0.946 | 3.13 | 2.57 µM | 5.74 µM | 2.85 | 6.11 µM | 2.59 µM | 6.93 µM | 2.24 µM | 5.83 µM
14 | CC(C)[C@@H](C(=O)O[C@@H]1/C=C/C(=O)O[C@@H](C)CCC/C=C/[C@@H]2C[C@H](O)C[C@H]21)[N+](C)(C)C | > 100 | > 100 | > 100 µM | > 100 µM | > 100 | > 100 µM | > 100 µM | > 100 µM | > 100 | > 100 | > 100 | > 100 | > 100 µM | > 100 µM | > 100 | > 100 µM | > 100 µM | > 100 µM | > 100 µM | > 100 µM
15 | N#Cc1cc2cc3c4c(c2oc1=O)CCCN4CCC3 |  | > 100 |  | > 100 µM |  | > 100 µM |  | > 100 µM |  | > 100 |  | > 100 |  | > 100 µM |  | > 100 µM |  | > 100 µM |  | > 100 µM
16 | Cn1c2ccccc2c2cc(-c3ccccc3)c3c(c21)C(=O)C=CC3=O |  | 39.3 |  | 34.7 µM |  | 32 µM |  | 39.4 µM |  | 49.9 |  | 22.7 |  | 35.1 µM |  | 44.7 µM |  | 47.2 µM |  | 35.2 µM
17 | CC1OC(OC2C(OC3C[C@@]4(C)C(C[C@H](O)[C@H]5[C@H](C6(C)CCC(C(C)(C)O)O6)CCC54C)[C@]4(C)CC[C@@H](O)C(C)(C)C34)OC(CO)C(O)C2O)C(O)C(O)C1O (some centres not stated) (tested in a mixture with another compound) |  | > 100 |  | > 100 µM |  | > 100 µM |  | > 100 µM |  | > 100 |  | > 100 |  | > 100 µM |  | > 100 µM |  | > 100 µM |  | > 100 µM
18 | Clc1ccccc1-c1nc2ccccc2[nH]1 | > 100 | > 100 | > 100 µM | > 100 µM | > 100 | > 100 µM | > 100 µM | > 100 µM | > 100 | > 100 | > 100 | > 100 | > 100 µM | > 100 µM | > 100 | > 100 µM | > 100 µM | > 100 µM | > 100 µM | > 100 µM
19 | O=C1OCC2=C1C(c1cccc(F)c1)c1cc3c(cc1N2CCO)OCCO3 (configuration not stated) | 0.144 | > 50 | 0.265 µM | > 50 µM | 0.363 | > 50 µM | 0.221 µM | > 50 µM | 0.203 | > 50 | 0.208 | > 50 | 0.204 µM | 7.43 µM | 0.112 | > 50 µM | 0.345 µM | > 50 µM | 0.541 µM | > 50 µM
20 | COC(=O)Nc1nc2c(OC)c(OC)c(OC)cc2[nH]1 | 15.7 | > 100 | 49 µM | > 100 µM | 66.6 | > 100 µM | 21.1 µM | > 100 µM | 33.2 | > 100 | 66.4 | > 100 | 7.33 µM | 64.7 µM | 13.3 | > 100 µM | 74 µM | > 100 µM | 49.6 µM | > 100 µM
21 | O=C1CC(c2ccccc2)Cc2nc3ccc(Cl)cc3cc21 (configuration not stated) | 0.112 | > 100 | 0.626 µM | 26.2 µM | 22.3 | > 100 µM | 0.644 µM | > 62.2 µM | 6.17 | > 89 | 0.815 | > 74.7 | 0.344 µM | 3 µM | 0.15 | 35.5 µM | 0.518 µM | > 84.9 µM | 0.791 µM | > 100 µM
22 | COc1cc(C2c3cc4c(cc3C3OC(=O)C2C3CO)OCO4)cc(OC)c1OC (configuration not stated) | 0.0511 | > 100 | < 0.01 µM | > 100 µM | 0.0535 | > 100 µM | 0.0354 µM | > 100 µM | 0.0181 | > 100 | 0.0437 | > 100 | 0.0188 µM | 0.0372 µM | < 0.0136 | > 100 µM | 0.0457 µM | > 100 µM | 0.0539 µM | > 100 µM
23 | O=C(Cc1ccccc1)Nc1nnc(CCSCCc2nnc(NC(=O)Cc3ccccc3)s2)s1 | 11.7 | 66 | 1.72 µM | 11.1 µM | 35.6 | > 100 µM | 4.1 µM | 18.3 µM | 8.13 | > 100 | 6.11 | 54.6 | > 100 µM | > 100 µM | 19.2 | > 100 µM | 5.34 µM | 44.7 µM | > 100 µM | > 100 µM
24 | CC(=O)NNC(=O)c1nn(-c2ccc(Cl)cc2)cc1OC(C)=O | 9.3 | 82.6 | 22.5 µM | > 100 µM | 15.6 | > 100 µM | 11.8 µM | > 100 µM | 13.7 | 94.6 | 14.4 | > 100 | 39.1 µM | > 100 µM | 19.8 | > 65.3 µM | 20.8 µM | > 100 µM | > 83.5 µM | > 100 µM
25 | OC(COc1ccc(Cl)cc1Cl)CN1CCCC1 (configuration not stated) |  | > 100 |  | > 100 µM |  | > 100 µM |  | > 100 µM |  | > 100 |  | > 100 |  | > 100 µM |  | 50.1 µM |  | > 100 µM |  | > 100 µM
26 | COc1ccc(C(=O)Nc2ncc(Cc3ccc(F)cc3)s2)cc1 | 0.0446 | 30.7 | 0.0673 µM | > 100 µM | 4.31 | 98.3 µM | 0.0686 µM | > 89.1 µM | 0.06 | > 100 | 0.11 | > 100 | 0.0584 µM |  | 0.0469 | > 94.4 µM | 0.0988 µM | > 100 µM | 0.406 µM | 99.6 µM
